The supplement of paper PMC13380429
Counter-ions that a name gives are not always drawn.

Legend:
Settings in all cases: 72 h
[1] = tested on: Calu-3; assay: relative viability EC50 (midpoint between 100% and the lowest measured viability); higher = less toxic
[2] = tested on: U2OS; assay: as above
[3] = tested on: HepG2; assay: as above
[4] = tested on: Caco-2; assay: as above
[5] = tested on: Calu-3; assay: drug sensitivity score (DSS) for viability; higher = more toxic; extreme values may be limits of the assay
[6] = tested on: U2OS; assay: as above
[7] = tested on: HepG2; assay: as above
[8] = tested on: Caco-2; assay: as above
[9] = tested on: Calu-3; assay: cell viability relative to DMSO; higher = less toxic
[10] = tested on: U2OS; assay: as above
[11] = tested on: HepG2; assay: as above
[12] = tested on: Caco-2; assay: as above

## Nc1nc(NC2CC2)c2ncn([C@H]3C=C[C@@H](CO)C3)c2n1 [ABACAVIR SULFATE]
[1]
  relative viability EC50: > 10 µM
[2]
  relative viability EC50: > 10 µM
[3]
  relative viability EC50: > 10 µM
[4]
  relative viability EC50: > 10 µM
[5]
  drug sensitivity score: 0
[6]
  drug sensitivity score: 0
[7]
  drug sensitivity score: 0
[8]
  drug sensitivity score: 0
[9]; 1 nM
  cell viability: 89.4%
[9]; 10 nM
  cell viability: 96.3%
[9]; 100 nM
  cell viability: 97.7%
[9]; 1000 nM
  cell viability: 100%
[9]; 10000 nM
  cell viability: 97.1%
[10]; 1 nM
  cell viability: 99.9%
[10]; 10 nM
  cell viability: 102%
[10]; 100 nM
  cell viability: 97.1%
[10]; 1000 nM
  cell viability: 106%
[10]; 10000 nM
  cell viability: 99.7%
[11]; 1 nM
  cell viability: 101%
[11]; 10 nM
  cell viability: 95.2%
[11]; 100 nM
  cell viability: 97.7%
[11]; 1000 nM
  cell viability: 90.3%
[11]; 10000 nM
  cell viability: 96%
[12]; 1 nM
  cell viability: 102%
[12]; 10 nM
  cell viability: 104%
[12]; 100 nM
  cell viability: 94.3%
[12]; 1000 nM
  cell viability: 98.4%
[12]; 10000 nM
  cell viability: 95.1%

## CCCCCN(C)CCC(O)(P(=O)(O)O)P(=O)(O)O [ibandronate]
[1]
  relative viability EC50: > 10 µM
[3]
  relative viability EC50: > 10 µM
[4]
  relative viability EC50: > 10 µM
[5]
  drug sensitivity score: 0
[7]
  drug sensitivity score: 0
[8]
  drug sensitivity score: 0
[9]; 1 nM
  cell viability: 96.4%
[9]; 10 nM
  cell viability: 111%
[9]; 100 nM
  cell viability: 96%
[9]; 1000 nM
  cell viability: 106%
[9]; 10000 nM
  cell viability: 107%
[11]; 1 nM
  cell viability: 111%
[11]; 10 nM
  cell viability: 98%
[11]; 100 nM
  cell viability: 112%
[11]; 1000 nM
  cell viability: 106%
[11]; 10000 nM
  cell viability: 117%
[12]; 1 nM
  cell viability: 97%
[12]; 10 nM
  cell viability: 111%
[12]; 100 nM
  cell viability: 106%
[12]; 1000 nM
  cell viability: 106%
[12]; 10000 nM
  cell viability: 94.5%

## O=C1NN(C(=O)Nc2ccc(Br)cc2)[C@@H](c2ccccc2)[C@@H]1c1ccccc1
[1]
  relative viability EC50: > 10 µM
[2]
  relative viability EC50: > 10 µM
[3]
  relative viability EC50: > 10 µM
[4]
  relative viability EC50: > 10 µM
[5]
  drug sensitivity score: 0.3
[6]
  drug sensitivity score: 0
[7]
  drug sensitivity score: 0
[8]
  drug sensitivity score: 0
[9]; 1 nM
  cell viability: 96.5%
[9]; 10 nM
  cell viability: 90.4%
[9]; 100 nM
  cell viability: 93.8%
[9]; 1000 nM
  cell viability: 91.2%
[9]; 10000 nM
  cell viability: 86%
[10]; 1 nM
  cell viability: 97.3%
[10]; 10 nM
  cell viability: 95.4%
[10]; 100 nM
  cell viability: 98.5%
[10]; 1000 nM
  cell viability: 94.8%
[10]; 10000 nM
  cell viability: 101%
[11]; 1 nM
  cell viability: 104%
[11]; 10 nM
  cell viability: 89.3%
[11]; 100 nM
  cell viability: 91.1%
[11]; 1000 nM
  cell viability: 106%
[11]; 10000 nM
  cell viability: 89.1%
[12]; 1 nM
  cell viability: 103%
[12]; 10 nM
  cell viability: 98.8%
[12]; 100 nM
  cell viability: 100%
[12]; 1000 nM
  cell viability: 98.6%
[12]; 10000 nM
  cell viability: 96.7%

## CCC(NC(C)C)C(O)c1ccc(O)c2[nH]c(=O)ccc12 (stereo not given) [procaterol]
[1]
  relative viability EC50: > 10 µM
[2]
  relative viability EC50: > 10 µM
[3]
  relative viability EC50: > 10 µM
[4]
  relative viability EC50: > 10 µM
[5]
  drug sensitivity score: 0
[6]
  drug sensitivity score: 0
[7]
  drug sensitivity score: 0
[8]
  drug sensitivity score: 0
[9]; 1 nM
  cell viability: 92.1%
[9]; 10 nM
  cell viability: 104%
[9]; 100 nM
  cell viability: 105%
[9]; 1000 nM
  cell viability: 110%
[9]; 10000 nM
  cell viability: 95.9%
[10]; 1 nM
  cell viability: 101%
[10]; 10 nM
  cell viability: 105%
[10]; 100 nM
  cell viability: 96%
[10]; 1000 nM
  cell viability: 104%
[10]; 10000 nM
  cell viability: 101%
[11]; 1 nM
  cell viability: 110%
[11]; 10 nM
  cell viability: 93.9%
[11]; 100 nM
  cell viability: 103%
[11]; 1000 nM
  cell viability: 97.4%
[11]; 10000 nM
  cell viability: 95.4%
[12]; 1 nM
  cell viability: 84.2%
[12]; 10 nM
  cell viability: 107%
[12]; 100 nM
  cell viability: 89.9%
[12]; 1000 nM
  cell viability: 99.6%
[12]; 10000 nM
  cell viability: 92.8%
